Like-named read-outs stand apart in the source and are kept apart here.
Columns and labels:
Echinochloa caudate = experiment: Post-emergence foliage spray, pot culture, fresh weight inhibition (Tables 1-48, 51-98, 101-148; 24 days); format: in vivo
Experimental: (§1) The above weeds were cultivated by a pot culture method. […] Full and uniform weed seeds were selected, soaked in warm water at 25° C. for 6 hours, and germinated in a 28° C. biochemical incubator (darkness). The weed seeds that had just germinatedwere evenly placed on the surface of the soil and then covered with 0.5-1 cm soil according to the sizes of seeds.
(§2) The technical materials were all dissolved in acetone, and diluted with an aqueous solution containing 0.1% emulsifier Tween-80. The dilution is performed as required.
(§3) A ratio of the active ingredient A to the active ingredient B and amounts thereof in each group depends on the characteristics and toxicity of the two agents, as well as the main application purpose of a corresponding formulation. Based on the pre-tests in this study, the dosage of the active ingredient A and B applied alone and in combination were shown in the tables. Water containing the solvent and emulsifier same with the above groups but free of the agents was used as a blank control.
(§4) In the stage of weeds with 3˜4 leaves, the weeds were thinned out to maintain 15 weeds per pot and 45 weeds for each treatment, then continued to be cultured to 5˜6 leaves stage of grassy weeds, 6˜7 leaves stage of broadleaf weeds, and treated.
(§5) The well-cultured weeds were evenly placed on a platform with an area of 0.5 m^2, and a solution of agents was sprayed on the stems and leaves thereof by the 3WP-2000-type walking spray tower at a dosage of 450 kg/ha and at a spray pressure of 0.3 MPa. After all the solution was sprayed, the valve was closed. After 30 seconds, the door of the spray tower was opened, and the nutritional bowl was taken out. Then the valve was opened, and the spray tube was cleaned by spraying 50 ml of water.
(§6) A pot-culture method was employed. For the cultivation of weeds, please refer to the Section 1.1), and “Pesticide guidelines for laboratory bioactivity tests—herbicides”. As to a method for applying agents, please refer to the section 2.3.2), that is, a foliage treatment was employed. After the treatment, the weeds were routinely cultured in a greenhouse.
(§7) A method for investigating absolute number was employed, wherein whole seedlings of survival weeds were cut off with a blade along the soil surface, and the fresh weight of the weeds was weighed with an analytical balance. For dead weeds, the fresh weight thereof was zero.
(§8) Wherein, in the formula, X represented the fresh weight inhibition rate of the active ingredient A in a dosage of P, and Y represented the fresh weight inhibition rate of the active ingredient B in a dosage of Q.

Echinochloa oryzoides = experiment: as above; format: in vivo
Experimental: as §1, §2, §3, §4, §5, §6, §7, §8

[1] = Echinochloa, 576 h, read-out: Control effect (%) of B applied alone in corresponding dose
[2] = Echinochloa oryzoides, 576 h, read-out: Control effect (%) of B applied alone in corresponding dose

Work on `CCNc1nc(Cl)nc(NC(C)C)n1` [atrazine] yielded a pest or weed control at 75 g/ha (Echinochloa caudate; Echinochloa, 576 h, atrazine 75 g a.i./ha, read-out: Control effect (%) of B applied alone in corresponding dose) of 3.8%, a pest or weed control at 150 g/ha (Echinochloa caudate; Echinochloa, 576 h, atrazine 150 g a.i./ha, read-out: Control effect (%) of B applied alone in corresponding dose) of 13.5% and a pest or weed control at 300 g/ha (Echinochloa caudate; Echinochloa, 576 h, atrazine 300 g a.i./ha, read-out: Control effect (%) of B applied alone in corresponding dose) of 24.8%. For the same molecule, the pest or weed control at 600 g/ha (Echinochloa caudate; Echinochloa, 576 h, atrazine 600 g a.i./ha, read-out: Control effect (%) of B applied alone in corresponding dose) was 66.5%, the pest or weed control at 75 g/ha (Echinochloa oryzoides; Echinochloa oryzoides, 576 h, B 75 g a.i./ha, read-out: Control effect (%) of B applied alone in corresponding dose) was 6.7% and the pest or weed control at 150 g/ha (Echinochloa oryzoides; Echinochloa oryzoides, 576 h, B 150 g a.i./ha, read-out: Control effect (%) of B applied alone in corresponding dose) was 21.7%. For the same molecule, the pest or weed control at 300 g/ha (Echinochloa oryzoides; Echinochloa oryzoides, 576 h, B 300 g a.i./ha, read-out: Control effect (%) of B applied alone in corresponding dose) was 26.4% and the pest or weed control at 600 g/ha (Echinochloa oryzoides; Echinochloa oryzoides, 576 h, B 600 g a.i./ha, read-out: Control effect (%) of B applied alone in corresponding dose) was 61.8%.
In the case of `CS(=O)(=O)c1ccc(C(=O)C2=C(Sc3ccccc3)C3CCC(C3)C2=O)c(Cl)c1` (stereo not shown) [benzobicylon], the “Control effect (%) of B applied alone in corresponding dose” value (shortened to “Control effect (%) of B applied alone”) (Echinochloa caudate; Table 86, 37.5 g a.i./ha) is reported as 2.1%, the “Control effect (%) of B applied alone” value (Echinochloa caudate; Table 86, 75 g a.i./ha) is reported as 11.7% and the “Control effect (%) of B applied alone” value (Echinochloa caudate; Table 86, 150 g a.i./ha) is reported as 43.3%. For the same molecule, the “Control effect (%) of B applied alone” value (Echinochloa caudate; Table 86, 300 g a.i./ha) was 54.4%, the “Control effect (%) of B applied alone” value (Echinochloa oryzoides; B 37.5 g a.i./ha) was 9.3% and the “Control effect (%) of B applied alone” value (Echinochloa oryzoides; B 75 g a.i./ha) was 18.0%. For the same molecule, the “Control effect (%) of B applied alone” value (Echinochloa oryzoides; B 150 g a.i./ha) was 46.6% and the “Control effect (%) of B applied alone” value (Echinochloa oryzoides; B 300 g a.i./ha) was 57.3%.
Work on `CCSC(C)CC1CC(=O)C(/C(CC)=N/OC/C=C/Cl)=C(O)C1` (stereo not shown) [clethodim] yielded a pest or weed control at 7.5 g/ha (Echinochloa caudate; [1]) of 3.4%, a pest or weed control at 15 g/ha (Echinochloa caudate; [1]) of 27% and a pest or weed control at 30 g/ha (Echinochloa caudate; [1]) of 43.8%. It also gave a pest or weed control at 60 g/ha (Echinochloa caudate; [1]) of 67.4%, a pest or weed control at 7.5 g/ha (Echinochloa oryzoides; [2]) of 6.7% and a pest or weed control at 15 g/ha (Echinochloa oryzoides; [2]) of 19%. It also gave a pest or weed control at 30 g/ha (Echinochloa oryzoides; [2]) of 37.8% and a pest or weed control at 60 g/ha (Echinochloa oryzoides; [2]) of 62.7%.
`CC1(C)CON(Cc2ccccc2Cl)C1=O` [clomazone] showed a pest or weed control at 45 g/ha (Echinochloa caudate; Echinochloa, 576 h, Table 89, 45 g a.i./ha, read-out: Control effect (%) of B applied alone in corresponding dose) of 8.6%, a pest or weed control at 90 g/ha (Echinochloa caudate; Echinochloa, 576 h, Table 89, 90 g a.i./ha, read-out: Control effect (%) of B applied alone in corresponding dose) of 19% and a pest or weed control at 180 g/ha (Echinochloa caudate; Echinochloa, 576 h, Table 89, 180 g a.i./ha, read-out: Control effect (%) of B applied alone in corresponding dose) of 47.7%. The pest or weed control at 360 g/ha (Echinochloa caudate; Echinochloa, 576 h, Table 89, 360 g a.i./ha, read-out: Control effect (%) of B applied alone in corresponding dose) was 70.1%, the pest or weed control at 45 g/ha (Echinochloa oryzoides; Echinochloa oryzoides, 576 h, B 45 g a.i./ha, read-out: Control effect (%) of B applied alone in corresponding dose) was 8.6% and the pest or weed control at 90 g/ha (Echinochloa oryzoides; Echinochloa oryzoides, 576 h, B 90 g a.i./ha, read-out: Control effect (%) of B applied alone in corresponding dose) was 12.9%. The pest or weed control at 180 g/ha (Echinochloa oryzoides; Echinochloa oryzoides, 576 h, B 180 g a.i./ha, read-out: Control effect (%) of B applied alone in corresponding dose) was 50.9% and the pest or weed control at 360 g/ha (Echinochloa oryzoides; Echinochloa oryzoides, 576 h, B 360 g a.i./ha, read-out: Control effect (%) of B applied alone in corresponding dose) was 72.1%.
With `CCCCOC(=O)[C@@H](C)Oc1ccc(Oc2ccc(C#N)cc2F)cc1` [cyhalofop-butyl] the pest or weed control at 9.375 g/ha (Echinochloa caudate; [1]) was 5.9%, the pest or weed control at 18.75 g/ha (Echinochloa caudate; [1]) was 11.4% and the pest or weed control at 37.5 g/ha (Echinochloa caudate; [1]) was 29.9%. The pest or weed control at 75 g/ha (Echinochloa caudate; [1]) was 69.6%, the pest or weed control at 9.375 g/ha (Echinochloa oryzoides; [2]) was 5.5% and the pest or weed control at 18.75 g/ha (Echinochloa oryzoides; [2]) was 15%. The pest or weed control at 37.5 g/ha (Echinochloa oryzoides; [2]) was 32.1% and the pest or weed control at 75 g/ha (Echinochloa oryzoides; [2]) was 63.5%.
`CN(C)C(=O)Nc1ccc(Cl)c(Cl)c1` [diuron] showed a pest or weed control at 75 g/ha (Echinochloa caudate; [1]) of 3%, a pest or weed control at 150 g/ha (Echinochloa caudate; [1]) of 16.5% and a pest or weed control at 300 g/ha (Echinochloa caudate; [1]) of 28.6%. For the same molecule, the pest or weed control at 600 g/ha (Echinochloa caudate; [1]) was 52.2%, the pest or weed control at 75 g/ha (Echinochloa oryzoides; [2]) was 4.1% and the pest or weed control at 150 g/ha (Echinochloa oryzoides; [2]) was 14%. The pest or weed control at 300 g/ha (Echinochloa oryzoides; [2]) was 31.3% and the pest or weed control at 600 g/ha (Echinochloa oryzoides; [2]) was 56.2%.
`CCCCOC(=O)[C@@H](C)Oc1ccc(Oc2ccc(C(F)(F)F)cn2)cc1` [fluazifop-P-butyl] was tested, and the “Control effect (%) of B applied alone” value (Echinochloa caudate; fluazifop-P-butyl 3.75 g a.i./ha) was 4.2%, the “Control effect (%) of B applied alone” value (Echinochloa caudate; fluazifop-P-butyl 7.5 g a.i./ha) was 13.9% and the “Control effect (%) of B applied alone” value (Echinochloa caudate; fluazifop-P-butyl 15 g a.i./ha) was 38.4%. The “Control effect (%) of B applied alone” value (Echinochloa caudate; fluazifop-P-butyl 30 g a.i./ha) was 74.1%, the “Control effect (%) of B applied alone” value (Echinochloa oryzoides; B 3.75 g a.i./ha) was 5.5% and the “Control effect (%) of B applied alone” value (Echinochloa oryzoides; B 7.5 g a.i./ha) was 14.2%. The “Control effect (%) of B applied alone” value (Echinochloa oryzoides; B 15 g a.i./ha) was 32.9% and the “Control effect (%) of B applied alone” value (Echinochloa oryzoides; B 30 g a.i./ha) was 71.5%.
For `COC(=O)[C@@H](C)Oc1ccc(Oc2ncc(C(F)(F)F)cc2Cl)cc1` [haloxyfop-P-methyl], the “Control effect (%) of B applied alone” value (Echinochloa caudate; haloxyfop-P-methyl 3.75 g a.i./ha) was 3.0%, the “Control effect (%) of B applied alone” value (Echinochloa caudate; haloxyfop-P-methyl 7.5 g a.i./ha) was 15.6% and the “Control effect (%) of B applied alone” value (Echinochloa caudate; haloxyfop-P-methyl 15 g a.i./ha) was 40.2%. The “Control effect (%) of B applied alone” value (Echinochloa caudate; haloxyfop-P-methyl 30 g a.i./ha) was 73.4%, the “Control effect (%) of B applied alone” value (Echinochloa oryzoides; B 3.75 g a.i./ha) was 7.9% and the “Control effect (%) of B applied alone” value (Echinochloa oryzoides; B 7.5 g a.i./ha) was 19.0%. The “Control effect (%) of B applied alone” value (Echinochloa oryzoides; B 15 g a.i./ha) was 30.4% and the “Control effect (%) of B applied alone” value (Echinochloa oryzoides; B 30 g a.i./ha) was 66.9%.
